Laboratory results reported in ChEMBL document CHEMBL1145708, “Selective cytotoxicity of ginkgetin from Selaginella moellendorffii” (J Nat Prod, 1997).
In brackets after ≈: the same amount, converted by molar mass. Activity calls are given as the source filed them. The calls are words filed in the database; no cut-off is given here.

Assays:
OVCAR-3 [1] = assay: Growth inhibition of human OVCAR-3 cells upto 10 ug/ml after 48 hrs; type: functional, cell-based
HepG2 = assay: Growth inhibition of human HepG2 cells; type: functional, cell-based
[2] = Growth inhibition of HEK cells; type: cell-based; conditions: human, hek293
HeLa = assay: Growth inhibition of human HeLa cells; type: functional, cell-based
OVCAR-3 [3] = assay: Growth inhibition of human OVCAR-3 cells after 48 hrs; type: functional, cell-based

With COc1ccc(-c2cc(=O)c3c(O)cc(OC)c(-c4cc(-c5cc(=O)c6c(O)cc(O)cc6o5)ccc4OC)c3o2)cc1 the Activity (OVCAR-3 [1]) was “inactive”.
With COc1cc(O)c2c(=O)cc(-c3ccc(OC)c(-c4c(O)cc(O)c5c(=O)cc(-c6ccc(O)cc6)oc45)c3)oc2c1 [GINKGETIN] the Activity (HepG2) was “inactive”, the Activity [2] was “Not Active” and the Activity (HeLa) was “inactive”. For the same compound, the Activity (OVCAR-3 [3]) was “Dose-dependent effect” and the IC50 (OVCAR-3 [3]; OVCAR-3, 48 h) was 1.8 µg/mL (≈ 3.18 µM).
For COc1ccc(-c2cc(=O)c3c(O)cc(OC)c(-c4cc(-c5cc(=O)c6c(O)cc(OC)cc6o5)ccc4OC)c3o2)cc1, the Activity (OVCAR-3 [1]) was “inactive”.
In the case of COc1ccc(-c2cc(=O)c3c(O)cc(O)c(-c4cc(-c5cc(=O)c6c(O)cc(O)cc6o5)ccc4O)c3o2)cc1, the Activity (OVCAR-3 [1]) is reported as “inactive”.
In the case of O=c1cc(-c2ccc(O)c(-c3c(O)cc(O)c4c(=O)cc(-c5ccc(O)cc5)oc34)c2)oc2cc(O)cc(O)c12, the Activity (OVCAR-3 [1]) is reported as “inactive”.
